Experimental data as given in ChEMBL document CHEMBL1201862, “PubChem BioAssay data set” (2004).
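These data come from cells grown in 96-well plates and exposed to compound for 48 hours at five concentrations. At the GI50, growth is halved.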 Active and inactive are the calls of the source. Cut-off read from the data, not from the text of the source: active = GI50 up to about 1.1 µM and inactive = higher.

Assays:
Test in all cases: DTP human tumour cell line panel, 48 h
TK-10 = system: TK-10
KM12 = system: KM12
LOX IMVI = system: LOX IMVI
MDA-N = system: MDA-N
MDA-MB-231 = system: MDA-MB-231
HL-60 = system: HL-60
HT-29 = system: HT-29
A549 = system: A549
SF-295 = system: SF-295
NCI/ADR-RES = system: NCI/ADR-RES
ACHN = system: ACHN
OVCAR-8 = system: OVCAR-8
786-0 = system: 786-0
EKVX = system: EKVX
UACC-62 = system: UACC-62
A498 = system: A498
Malme-3M = system: Malme-3M
SF-268 = system: SF-268
NCI-H226 = system: NCI-H226

Measured: GI50

COC(=O)CCC(=O)c1ccc2c(c1)CC1(C2)Cc2ccc(C(=O)CCC(=O)OC)cc2C1
inactive: TK-10 82.6 µM | KM12 > 100 µM | LOX IMVI > 100 µM | MDA-N 73.1 µM | MDA-MB-231 60.1 µM | HL-60 56.2 µM | HT-29 > 100 µM | A549 > 100 µM | SF-295 53.8 µM | NCI/ADR-RES 37.4 µM | ACHN 25.8 µM | OVCAR-8 73.6 µM | 786-0 30.8 µM | EKVX > 100 µM | UACC-62 > 100 µM | A498 45 µM | Malme-3M > 100 µM

C1COCCSC2=C(SCCO1)SC(=C1SC3=C(SCCOCCOCCS3)S1)S2
inactive: TK-10 > 100 µM | KM12 > 100 µM | LOX IMVI > 100 µM | HL-60 > 100 µM | HT-29 > 100 µM | A549 > 100 µM | SF-295 50.9 µM | SF-268 51.1 µM | ACHN > 100 µM | OVCAR-8 53.5 µM | 786-0 45.8 µM | NCI-H226 > 100 µM | EKVX > 100 µM | UACC-62 > 100 µM | A498 > 100 µM | Malme-3M 98.9 µM

CCCc1nc(NC#N)nc(C(=O)Nc2ccccc2)c1CC
inactive: TK-10 > 100 µM | KM12 > 100 µM | LOX IMVI > 100 µM | HL-60 > 100 µM | HT-29 > 100 µM | A549 > 100 µM | SF-295 > 100 µM | SF-268 > 100 µM | ACHN > 100 µM | OVCAR-8 > 100 µM | 786-0 > 100 µM | NCI-H226 > 100 µM | EKVX > 100 µM | UACC-62 > 100 µM | A498 > 100 µM | Malme-3M > 100 µM

O=c1[nH]c(Nc2cccc(C(F)(F)F)c2)nc2[nH]cnc12
inactive: TK-10 > 100 µM | KM12 > 100 µM | LOX IMVI > 100 µM | MDA-N 82.2 µM | MDA-MB-231 > 100 µM | HL-60 > 100 µM | HT-29 77.1 µM | A549 > 100 µM | SF-295 > 100 µM | SF-268 > 100 µM | NCI/ADR-RES > 100 µM | ACHN > 100 µM | OVCAR-8 > 100 µM | 786-0 > 100 µM | NCI-H226 > 100 µM | EKVX > 100 µM | Malme-3M > 100 µM

NS(=O)(=O)c1ccc(NC(=S)NC=C2C(=O)c3ccccc3C2=O)cc1
inactive: TK-10 46.6 µM | KM12 > 100 µM | LOX IMVI > 100 µM | MDA-N > 100 µM | MDA-MB-231 23.7 µM | HL-60 > 100 µM | A549 > 100 µM | SF-295 > 100 µM | SF-268 36.5 µM | ACHN > 100 µM | 786-0 > 100 µM | EKVX > 100 µM | UACC-62 56.2 µM | A498 71.9 µM | Malme-3M > 100 µM

C#CCOCn1cnc2c(S)ncnc21
inactive: TK-10 > 100 µM | KM12 > 100 µM | LOX IMVI > 100 µM | HL-60 > 100 µM | HT-29 > 100 µM | A549 > 100 µM | SF-295 > 100 µM | SF-268 > 100 µM | ACHN > 100 µM | OVCAR-8 > 100 µM | 786-0 > 100 µM | NCI-H226 > 100 µM | EKVX > 100 µM | UACC-62 > 100 µM | A498 > 100 µM | Malme-3M > 100 µM

CCOC(=O)C(Cc1ccc2c(c1)CCC2)Cc1ccc2c(c1)CCC2
inactive: TK-10 > 100 µM | LOX IMVI 20.7 µM | MDA-N 98.4 µM | MDA-MB-231 > 100 µM | HL-60 25.9 µM | HT-29 45.9 µM | A549 > 100 µM | SF-295 89.9 µM | SF-268 > 100 µM | NCI/ADR-RES 73.1 µM | ACHN > 100 µM | OVCAR-8 > 100 µM | 786-0 > 100 µM | EKVX 91 µM | A498 > 100 µM | Malme-3M > 100 µM

COc1c(-c2cc(C)c(Cl)c(=O)[nH]2)c(O)c(OC)c2occc12
inactive: TK-10 42.9 µM | KM12 > 100 µM | LOX IMVI > 100 µM | MDA-N > 100 µM | MDA-MB-231 75.9 µM | HL-60 > 100 µM | HT-29 > 100 µM | A549 > 100 µM | SF-295 > 100 µM | SF-268 97.1 µM | NCI/ADR-RES > 100 µM | ACHN > 100 µM | OVCAR-8 > 100 µM | 786-0 > 100 µM | NCI-H226 > 100 µM | EKVX > 100 µM | UACC-62 64 µM | Malme-3M > 100 µM

CC1(C)OC(=O)C(=Cc2ccc(O)cc2)C(=O)O1
inactive: TK-10 > 100 µM | KM12 > 100 µM | LOX IMVI > 100 µM | HL-60 > 100 µM | HT-29 > 100 µM | A549 > 100 µM | SF-295 > 100 µM | SF-268 > 100 µM | ACHN > 100 µM | OVCAR-8 > 100 µM | 786-0 > 100 µM | NCI-H226 > 100 µM | EKVX > 100 µM | UACC-62 > 100 µM | A498 > 100 µM | Malme-3M > 100 µM

CCCCCN(CCCCC)C(=O)[C@H](CCC(=O)O)NC(=O)c1cc2ccccc2[nH]1
inactive: TK-10 > 100 µM | KM12 50.4 µM | LOX IMVI > 100 µM | HL-60 29.3 µM | HT-29 59.6 µM | A549 88.5 µM | SF-295 57.8 µM | SF-268 33.9 µM | ACHN 49.2 µM | OVCAR-8 77.1 µM | 786-0 92.7 µM | NCI-H226 36.6 µM | EKVX > 100 µM | UACC-62 28.1 µM | A498 > 100 µM | Malme-3M 94.8 µM

O=C1NC2(NC(=O)C1=O)Nc1ccccc1S2
inactive: TK-10 > 100 µM | KM12 > 80.4 µM | LOX IMVI 18.9 µM | HL-60 21.6 µM | HT-29 67 µM | A549 > 60.5 µM | SF-295 38.6 µM | SF-268 24.8 µM | ACHN 33.4 µM | OVCAR-8 58.7 µM | 786-0 21.7 µM | NCI-H226 > 58.6 µM | EKVX > 100 µM | UACC-62 23.8 µM | A498 99.1 µM | Malme-3M 97.1 µM

O=C(Nc1ccc(Cl)cc1)NS(=O)(=O)c1c(-c2ccccc2)oc2ccccc2c1=O
inactive: TK-10 23 µM | KM12 36.2 µM | LOX IMVI 9.25 µM | MDA-N 44.7 µM | HL-60 61.7 µM | HT-29 57.8 µM | A549 39 µM | SF-295 36.2 µM | SF-268 > 100 µM | NCI/ADR-RES 86.3 µM | ACHN 27.1 µM | OVCAR-8 59.3 µM | 786-0 > 100 µM | NCI-H226 > 100 µM | EKVX > 100 µM | UACC-62 1.97 µM | A498 33 µM | Malme-3M > 100 µM

COc1cccc(Nc2nc3c([nH]2)c(=O)n(C)c(=O)n3C)c1
inactive: TK-10 > 10 µM | KM12 > 10 µM | LOX IMVI > 10 µM | MDA-N > 10 µM | MDA-MB-231 > 10 µM | HL-60 > 10 µM | HT-29 > 10 µM | A549 > 10 µM | SF-295 > 10 µM | SF-268 > 10 µM | OVCAR-8 > 10 µM | 786-0 > 10 µM | EKVX > 10 µM | UACC-62 > 10 µM | Malme-3M > 10 µM

CC(=O)OCC1OC(n2cc(I)c(=O)[nH]c2=O)C(OC(C)=O)C(OC(C)=O)C1OC(C)=O (centres undefined)
inactive: TK-10 > 100 µM | KM12 > 100 µM | LOX IMVI > 100 µM | HL-60 > 100 µM | HT-29 > 100 µM | A549 > 100 µM | SF-295 > 100 µM | SF-268 > 100 µM | ACHN > 100 µM | OVCAR-8 > 100 µM | 786-0 > 100 µM | NCI-H226 > 100 µM | EKVX > 100 µM | UACC-62 > 100 µM | A498 > 100 µM | Malme-3M > 100 µM

COc1cc(CNc2nc3ccccc3n2Cc2ccccc2)cc(CN2CCOCC2)c1O
inactive: TK-10 23.9 µM | KM12 34.8 µM | LOX IMVI 15.5 µM | MDA-N 27.4 µM | MDA-MB-231 18.7 µM | HT-29 23.3 µM | A549 47.5 µM | SF-295 19.3 µM | SF-268 59.8 µM | NCI/ADR-RES 23 µM | ACHN 39.6 µM | OVCAR-8 32.1 µM | 786-0 16.7 µM | NCI-H226 30.8 µM | EKVX 53.3 µM | UACC-62 22.9 µM | A498 21.1 µM | Malme-3M 19.1 µM

O=C(/C=C/c1ccc(O)cc1)c1ccc2c(c1)OCO2
inactive: KM12 17 µM | LOX IMVI 18.7 µM | MDA-N 24 µM | MDA-MB-231 17.5 µM | HL-60 12.1 µM | HT-29 13.4 µM | A549 19.4 µM | SF-295 21.8 µM | SF-268 23.8 µM | NCI/ADR-RES 25.1 µM | ACHN 21.9 µM | OVCAR-8 15.2 µM | 786-0 18 µM | NCI-H226 15.5 µM | EKVX 36.2 µM | UACC-62 18.7 µM | A498 23.8 µM | Malme-3M 31.8 µM
